Source: patent US20220267271A1, “WNT ACTIVATORS AND METHODS OF USE” (MAYO FOUNDATION FOR MEDICAL EDUCATION AND RESEARCH, priority 2019, published 2022)
≈ marks a conversion by molar mass, not a printed value. Read-outs that look alike come from different tables or passages of the source.

Columns and labels:
[1] = test system: BACE1; assay: BACE1 expression in N2a cells by Western blotting; assay type: cell-based; conditions: 24 h
Method: (A,C) N2a cells were treated with CI-994 at the indicated concentration for 24 h, and the levels of β-catenin (A) and BACE1 (C) were examined by Western blotting. (B,D) The band intensity of β-catenin and BACE1 was quantified and normalized to the corresponding signal for actin. The results represented in the histograms are shown as the mean±SD and are the average of three independent experiments. *P<0.05, **P<0.01 versus corresponding control value.
N2a cells were treated with 1015 and 1020 at the indicated concentrations for 24 h. (A) the levels of BACE1 expression were examined by Western blotting. (B) The intensity of BACE1 bands were quantified and normalized to the corresponding signal for actin. The results represented in the histograms are shown as the mean±SD and are the average of 3-4 independent experiments. *P<0.05, **P<0.01 versus corresponding control value.
Western blotting: Cells in 6-well plates were lysed in 0.5 ml of lysis buffer (phosphate-buffered saline containing 1% Triton X-100, 1× Proteinase inhibitor cocktail Complete, and 1 mM PMSF) at 4° C. for 15 min. Equal quantities of protein were subjected to SDS-PAGE under reducing conditions. Following transfer to immobilon-P transfer membrane, successive incubations with a primary antibody, and a horseradish peroxidase-conjugated secondary antibody or IRDye® 680RD goat anti-rabbit/mouse secondary antibodies were carried out for 60-120 min at room temperature. The immunoreactive proteins were then detected using the ECL system or the Odyssey infrared imaging system (LI-COR). Films showing immunoreactive bands were scanned by Hp Scanjet 5590.

[2] = test system: HDAC; assay: Histone Deacetylase (HDAC) activity assay (fluorometric kit); assay type: biochemical; conditions: 2 μM
Method: HDAC enzymatic activities of compounds were measured by fluorometric HDAC Activity Assay kit (Abcam. #ab156064). Trichostatin A, a known HDAC inhibitor, was used as the positive control. All the values are the average of triple determination with the s.d. indicated by error bars. **P<0.01 versus the corresponding control value.
Histone Deacetylase (HDAC) activity assay: Histone Deacetylase (HDAC) activity assay kit (ab156064) was purchased from Abcam, and the effects of the tested compounds on HDAC activity were examined according to the manufacturers specifications.

[3] = Aqueous (kinetic) solubility assay in PBS pH 7.4; assay type: physicochemical; conditions: phosphate-buffered saline, 25 °C, pH 7.4, aqueous buffer, kinetic from dmso stock, PBS pH 7.4, 2% DMSO, two hours, assay range 2-200 μM
Method: Aqueous solubility assay: Using a 10 mM stock solution of the compound in 100% DMSO, dilutions were prepared to a theoretical concentration of 200 μM in duplicates in phosphate-buffered saline pH 7.4 with 2% final DMSO. In parallel, compound dilutions in 50% acetonitrile/PBS were prepared to theoretical concentrations of 0 μM (blank), 50 μM, 100 μM and 200 μM with 2% final DMSO to generate calibration curves. The experimental compound dilutions in PBS were further allowed to equilibrate at 25° C. on a thermostatic orbital shaker for two hours and then centrifuged at 14000 rpm, 5 min and filtered through HTS filter plates using a vacuum manifold. The supernatants of test compounds were diluted 2-fold with acetonitrile contained 4% DMSO before measuring. Ondansetron was used as reference compound to control proper assay performance. 200 μl of samples were transferred to 96-well plate and measured in 200-550 nm range with 5 nm step. The effective range of this assay is approximately 2-200 μM and the compounds returning values close to the upper limit of the range may have higher actual solubility (e.g. 5 ? deoxy-5-fluorouddine).

[4] = Metabolic stability in mouse liver microsomes; assay type: in vitro ADME; conditions: 2 μM, five time points over 40 min, NADPH
Method: Metabolic stability of several compounds (1009, 1011, 1015, 1020, and 1056) and 2 reference compounds (propranolol and imipramine) were determined in mouse liver microsomes at five time points over 40 min using HPLC-MS. Metabolic stability is defined as the percentage of parent compound lost over time in the presence of a metabolically active test system.
Metabolic stability in mouse liver microsomes: Mouse hepatic microsomes were isolated from pooled, perfused livers of Balb/c male mice according to the standard protocol. The batch of microsomes was tested for quality control using Imipramine, Propranolol and Verapamil as reference compounds. Microsomal incubations were carried out in 96-well plates in 5 aliquots of 40 μL each (one for each time point). Liver microsomal incubation medium contained PBS (100 mM, pH 7.4), MgCl2 (3.3 mM), NADPH (3 mM), glucose-6-phosphate (5.3 mM), glucose-6-phosphate dehydrogenase (0.67 units/ml) with 0.42 mg of liver microsomal protein per ml. Control incubations were performed replacing the NADPH-cofactor system with PBS. Test compound (2 μM, final solvent concentration 1.6%) was incubated with microsomes at 37° C., shaking at 100 rpm. Incubations were performed in duplicates. Five time points over 40 minutes had been analyzed. The reactions were stopped by adding 12 volumes of 90% acetonitrile-water to incubation aliquots, followed by protein sedimentation by centrifuging at 5500 rpm for 3 minutes. […]. Supernatants were analyzed using the HPLC system coupled with tandem mass spectrometer.
The elimination constant (kel), half-life (t1/2) and intrinsic clearance (Clint) were determined in plot of […] versus time, using linear regression analysis: […]

[5] = read-out: PBS solubility, pH 7.4, μM Exp1
[6] = read-out: PBS solubility, pH 7.4, μM Exp2
[7] = read-out: PBS solubility, pH 7.4, μM Mean

SMILES	BACE1 expression ([1]; CI-994 at the indicated concentration)	inhibitory effects on HDAC activity [2]	solubility at 2 h [3, 5] [µM]	solubility at 2 h [3, 6] [µM]	solubility at 2 h [3, 7] [µM]	stability in mouse hepatic microsomal system [4]	BACE1 expression ([1]; 0.8 μM and 1.6 μM)
CC(=O)Nc1ccc(C(=O)Nc2ccccc2N)cc1 [CI-994, 4-(acetylamino)-N-(2-aminophenyl)benzamide, reference compound]	deceased	–	–	–	–	–	–
CC1CCCC(C)N1CCNC(=O)c1ccc(C(=O)Nc2ccccc2N)nc1 (stereo not drawn) [Compound 1011]	–	do not display any inhibitory effects	207 (≈ 81.9 µg/mL)	207 (≈ 81.9 µg/mL)	≥ 200	good stability	–
Nc1ccccc1NC(=O)c1ccc(C(=O)NCC2CCN2C2CCCC2)cn1 (stereo not drawn) [Compound 1015]	–	do not display any inhibitory effects	210 (≈ 82.6 µg/mL)	211 (≈ 83 µg/mL)	≥ 200	good stability	significantly inhibited
Nc1ccccc1NC(=O)c1ccc(C(=O)NCCN2CCC3(CCCCC3)CC2)cc1 [Compound 1020]	–	do not display any inhibitory effects	200 (≈ 86.9 µg/mL)	205 (≈ 89.1 µg/mL)	≥ 200	unstable	significantly inhibited
